Source: US20260317324A1, “BIFUNCTIONAL COMPOUNDS FOR DEGRADING BRAF VIA UBIQUITIN PROTEOSOME PATHWAY” (Nurix Therapeutics, Inc., priority 2023, published 2026)

Legend:
Type in all cases: cell-based
[1] = target: T1, BRAF V600E (Homo sapiens, UniProt P15056, V600E); assay: BRAF HiBiT degradation assay, C-terminal HiBiT-tagged BRAF V600E A375 cells (clone 1F10), Nano-Glo HiBiT Lytic assay; conditions: for Dmax: A-375
T1 construct: endogenous C-terminal HiBiT fusion tag on BRAF V600E allele; endogenous in cells; host or cells: A375 clone 1F10 (CRISPR-Cas9 knock-in of the HiBiT tag; parental A375 from ATCC)
Procedure, shortened: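 A375 cells with CRISPR knock-in C-terminal HiBiT on endogenous BRAF V600E (clone 1F10) were seeded and cultured 24 h at 37 °C, then dosed with an 11-point half-log series (1 μM to 0.01 nM, duplicate, 0.2% DMSO). Lytic HiBiT luminescence gave % protein remaining; DC50 was the fitted concentration at 50%.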

[2] = target: T2, BRAF G466V (Homo sapiens, UniProt P15056, G466V); assay: BRAF HiBiT degradation assay, C-terminal HiBiT-tagged BRAF G466V overexpressed in HCT-116 BRAF−/− cells (clone 8), Nano-Glo HiBiT Lytic assay
T2 construct: Horizon Discovery (HCT-116 BRAF−/− cells); host or cells: HCT-116 BRAF−/− cells, clone 8, lentiviral transduction
Excerpt: (§1) An A375 cell line expressing a homozygous V600E mutation was purchased from ATCC (Manassas, VA, USA). An A375 clone 1F10 cell line with an endogenous C-terminal HiBiT fusion tag on BRAF V600E allele was generated internally using CRISPR-Cas9 technology and cultured in DMEM, high glucose supplemented with 10% FBS and 1× GlutaMAX. A HCT-116 BRAF−/− cell line overexpressing the C-terminal HiBiT-tagged G466V, G469A, and D594G mutants were generated by lentiviral transduction, externally at Biosettia Inc (San Diego, CA, USA). The stably transfected cells were cultured in RPMI media supplemented with 10% FBS, 1× GlutaMAX, and 0.25 μg/ml puromycin. DMEM medium, RPMI 1640 medium, GlutaMAX, fetal bovine serum (FBS), and puromycin were purchased from Gibco (Grand Island, NY, USA). HCT-116 BRAF−/− cells were purchased from Horizon Discovery (Waterbeach, UK).
(§2) The C-terminal HiBiT tagged mutant BRAF G466V, G469A, and D594G overexpressed in HCT-116 BRAF−/− cells (monoclonal cell line, cell clones 8, 34, and 63, respectively) were seeded at the density of 3,000 cells/well in 30 μL media (RPMI supplemented with 10% FBS and 1× GlutaMAX) in white opaque 384-well plates (Corning #3570) from column 1 to column 23. Wildtype HCT-116 BRAF cells were seeded in column 24 at the same cell density in 30 μL media. Cells were incubated at 37° C. with 5% CO2 for 24 h.
(§3) Intermediate compound dilution series (5-point, ranging from 5 mM to 0.5 μM, 10-fold dilutions in DMSO) were prepared in a source plate (Beckman Coulter cat. no. 001-16128). Final compound dilution series (11-point, ranging from 1 μM to 0.01 nM, half-log dilutions in DMSO) were stamped into the assay plate (Corning #3570, column 1-11 and 12-22) using the Echo Acoustic Liquid Handler (Beckman Coulter). Each compound was plated in duplicate, and the total volume of compound DMSO solution was 60 nL/well (0.2% final DMSO concentration). DMSO was included in wells A23-L23 and A24-L24. The DMSO-treated HiBiT-tagged samples served as Negative Control (NC) and the DMSO-treated wildtype samples served as Background Control (BC) for the HiBiT assay.
(§4) HiBiT signal was measured by a Nano-Glo HiBiT Lytic assay (Promega cat. no. N3050). HiBiT lytic detection reagent (Nano-Glo HiBiT Lytic Buffer with 1:50 Nano-Glo HiBiT Lytic Substrate and 1:100 LgBiT Protein, 40 μL) was added using Bravo. The mixture was incubated at room temperature, in the dark, and with gentle shaking for 10 min. Luminesce units (LU) were read on an EnVision plate reader 2105 (Perkin Elmer).
(§5) Percent protein remaining and viability remaining per sample were calculated as follows: […]
(§6) % Protein remaining values were plotted as a function of compound concentration. XC50 (DC50) values were determined by fitting curves using the following equation:
(§7) For the HiBiT degradation assay, the key parameters reported include: • The dose of compound that produces 50% degradation (DC50 at 50%): • DC50 at 50%: the Fitted X value (Conc.) at Y=50 (response) • Observed Dmax (Obs. Dmax) is the percentage protein degraded at maximal compound effect relative to DMSO-treated control: […]

[3] = target: T3, BRAF G469A (Homo sapiens, UniProt P15056, G469A); assay: BRAF HiBiT degradation assay, C-terminal HiBiT-tagged BRAF G469A overexpressed in HCT-116 BRAF−/− cells (clone 34), Nano-Glo HiBiT Lytic assay
T3 construct: Horizon Discovery (HCT-116 BRAF−/− cells); host or cells: HCT-116 BRAF−/− cells, clone 34, lentiviral transduction
Excerpt: as §1, §2, §3, §4, §5, §6, §7

[4] = target: T4, BRAF D594G (Homo sapiens, UniProt P15056, D594G); assay: BRAF HiBiT degradation assay, C-terminal HiBiT-tagged BRAF D594G overexpressed in HCT-116 BRAF−/− cells (clone 63), Nano-Glo HiBiT Lytic assay
T4 construct: Horizon Discovery (HCT-116 BRAF−/− cells); host or cells: HCT-116 BRAF−/− cells, clone 63, lentiviral transduction
Excerpt: as §1, §2, §3, §4, §5, §6, §7

[5] = A375 (BRAF V600E, Class 1), DC50 at 50% degradation
[6] = A375 (BRAF V600E, Class 1), observed Dmax, % protein degraded relative to DMSO control
[7] = BRAF G466V (Class 3), HCT-116 BRAF−/− cells, DC50 at 50% degradation
[8] = BRAF G466V (Class 3), HCT-116 BRAF−/− cells, observed Dmax relative to DMSO control
[9] = BRAF G469A (Class 2), HCT-116 BRAF−/− cells, DC50 at 50% degradation
[10] = BRAF G469A (Class 2), HCT-116 BRAF−/− cells, observed Dmax relative to DMSO control
[11] = BRAF D594G (Class 3), HCT-116 BRAF−/− cells, DC50 at 50% degradation
[12] = BRAF D594G (Class 3), HCT-116 BRAF−/− cells, observed Dmax relative to DMSO control
[13] = A375 (BRAF V600E), DC50 at 50%: fitted conc. at Y=50
[14] = A375 (BRAF V600E), percentage protein degraded at maximal compound effect relative to DMSO
[15] = BRAF G466V, DC50 at 50%: fitted conc. at Y=50
[16] = HCT-116, BRAF G466V, percentage protein degraded at maximal compound effect relative to DMSO
[17] = Class 2, BRAF G469A, DC50 at 50%: fitted conc. at Y=50
[18] = HCT-116, Class 2, BRAF G469A, percentage protein degraded at maximal compound effect relative to DMSO
[19] = BRAF D594G, DC50 at 50%: fitted conc. at Y=50
[20] = HCT-116, BRAF D594G, percentage protein degraded at maximal compound effect relative to DMSO

T2 sequence (P15056 whole entry G466V): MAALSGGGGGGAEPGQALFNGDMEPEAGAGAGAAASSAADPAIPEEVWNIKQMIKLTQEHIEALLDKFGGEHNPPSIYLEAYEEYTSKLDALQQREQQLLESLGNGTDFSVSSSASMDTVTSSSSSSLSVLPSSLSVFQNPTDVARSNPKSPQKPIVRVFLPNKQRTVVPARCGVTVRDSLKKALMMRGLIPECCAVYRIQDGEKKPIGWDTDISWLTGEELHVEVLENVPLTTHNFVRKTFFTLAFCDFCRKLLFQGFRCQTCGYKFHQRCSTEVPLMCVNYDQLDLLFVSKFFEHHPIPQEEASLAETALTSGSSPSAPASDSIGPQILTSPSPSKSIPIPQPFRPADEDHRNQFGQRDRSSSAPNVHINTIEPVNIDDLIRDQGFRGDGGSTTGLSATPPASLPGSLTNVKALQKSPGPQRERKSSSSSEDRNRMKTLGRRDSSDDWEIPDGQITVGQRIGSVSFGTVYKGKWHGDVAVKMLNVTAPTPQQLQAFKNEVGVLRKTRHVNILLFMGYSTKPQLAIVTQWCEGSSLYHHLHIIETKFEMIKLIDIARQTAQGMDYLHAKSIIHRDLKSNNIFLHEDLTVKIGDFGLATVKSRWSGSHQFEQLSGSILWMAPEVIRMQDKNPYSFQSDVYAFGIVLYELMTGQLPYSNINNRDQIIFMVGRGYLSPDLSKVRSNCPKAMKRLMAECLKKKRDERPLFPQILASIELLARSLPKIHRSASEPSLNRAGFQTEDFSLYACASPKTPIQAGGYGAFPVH
T4 sequence (P15056 whole entry D594G): as the sequence (P15056 whole entry G466V) above, with V466G, D594G counted along it
T3 sequence (P15056 whole entry G469A): as the sequence (P15056 whole entry G466V) above, with V466G, G469A counted along it
T1 sequence (P15056 whole entry V600E, the tested form may be a part): as the sequence (P15056 whole entry G466V) above, with V466G, V600E counted along it

Row | DC50 [1, 5] [nM] | Dmax [1, 6] [%] | DC50 [2, 7] [nM] | Dmax [2, 8] [%] | DC50 [3, 9] [nM] | Dmax [3, 10] [%] | DC50 [4, 11] [nM] | Dmax [4, 12] [%] | DC50 [1, 13] [nM] | Dmax [1, 14] [%] | DC50 [2, 15] [nM] | Dmax [2, 16] [%] | DC50 [3, 17] [nM] | Dmax [3, 18] [%] | DC50 [4, 19] [nM] | Dmax [4, 20] [%] | SMILES
1 | < 10 | > 70 | < 10 | > 70 | 10 to 50 | > 70 | < 10 | 30 to 70 | – | – | – | – | – | – | – | – | O=C1CCC(c2ccc(N3CCC(CN4CCN(c5ccc(-n6cc(-c7cc(Cl)cc(NS(=O)(=O)N8CCCC8)c7F)c(-c7ccncc7)n6)c(F)c5)CC4)CC3)nc2)C(=O)N1 (racemic) [Compound 266, Rac-(R)—N-(5-chloro-3-(1-(4-(4-((1-(5-(2,6-dioxopiperidin-3-yl)pyridin-2-yl)piperidin-4-yl)methyl)piperazin-1-yl)-2-fluorophenyl)-3-(pyridin-4-yl)-1H-pyrazol-4-yl)-2-fluorophenyl)pyrrolidine-1-sulfonamide]
2 | – | – | – | – | – | – | – | – | 10 to 50 | > 70 | > 500 | < 30 | > 500 | < 30 | > 500 | < 30 | CCCS(=O)(=O)Nc1cccc(-c2nc(C(C)(C)C)sc2-c2ccnc(Nc3ccc(C4CCN(CC5CCN(c6cncc(C7CCC(=O)NC7=O)c6)CC5)CC4)cc3)n2)c1F (racemic) [Compound 177, Rac-N-[3-(2-tert-butyl-5-{2-[(4-{1-[(1-{5-[(3R)-2,6-dioxopiperidin-3-yl]pyridin-3-yl}piperidin-4-yl)methyl]piperidin-4-yl}phenyl)amino]pyrimidin-4-yl}-1,3-thiazol-4-yl)-2-fluorophenyl]propane-1-sulfonamide]
3 | 10 to 50 | > 70 | > 500 | < 30 | > 500 | < 30 | > 500 | < 30 | – | – | – | – | – | – | – | – | CCCS(=O)(=O)Nc1cccc(-c2nc(C3CCC4(CC3)CCN(C(=O)C3CCN(c5ccc(C(=O)NC6CCC(=O)NC6=O)nc5)CC3)CC4)sc2-c2ccnc(N)n2)c1F (racemic) [Compound 252, Rac-5-(4-{9-[5-(2-aminopyrimidin-4-yl)-4-[2-fluoro-3-(propane-1-sulfonamido)phenyl]-1,3-thiazol-2-yl]-3-azaspiro[5.5]undecane-3-carbonyl}piperidin-1-yl)-N-[(3R)-2,6-dioxopiperidin-3-yl]pyridine-2-carboxamide]
4 | – | – | – | – | – | – | – | – | < 10 | > 70 | < 10 | > 70 | > 500 | 30 to 70 | 10 to 50 | 30 to 70 | CCCS(=O)(=O)Nc1cccc(-c2nc(C(C)(C)C)sc2-c2ccnc(Nc3ccc(N4CCN(CC5CCN(c6ccc(C7CCC(=O)NC7=O)cn6)CC5)CC4)cc3)n2)c1F (racemic) [Compound 47, Rac-N-[3-(2-tert-butyl-5-{2-[(4-{4-[(1-{5-[(3R)-2,6-dioxopiperidin-3-yl]pyridin-2-yl}piperidin-4-yl)methyl]piperazin-1-yl}phenyl)amino]pyrimidin-4-yl}-1,3-thiazol-4-yl)-2-fluorophenyl]propane-1-sulfonamide]
